Measurements: patent publication US5770613A, “Telomerase inhibitors” (Geron Corporation, priority 1995, dated 1998)
“Also recorded” adds a separate entry of the source.

Key:
[1] = target: T1, telomerase (Homo sapiens, UniProt O14746); experiment: Inhibition of telomerase activity (IC50); format: biochemical; conditions: approximate values (Table 2)
T1 construct: preferably a cellular extract or other preparation containing telomerase; endogenous in cells

[2] = system: Topoisomerase II; experiment: Specificity screen versus telomerase; format: biochemical; conditions: from IC50 screening
From the text: (§1) Compound V was screened for activity (IC50) against telomerase and several enzymes having nucleic acid binding or modifying activities related to telomerase using standard techniques. The enzymes screened included Telomerase, Topoisomerase II, Terminal Transferase and Single-Stranded DNA Binding Protein (SSB).

[3] = system: Terminal Transferase; experiment: Specificity screen versus telomerase; format: biochemical; conditions: from IC50 screening
From the text: as §1

[4] = system: Single-Stranded DNA Binding Protein (SSB); experiment: Specificity screen versus telomerase; format: biochemical; conditions: from IC50 screening
From the text: as §1

[5] = system: SK-OV-3 cells; experiment: Long-term exposure of cell colonies, effect on growth; format: cell-based; conditions: 5 μM, added every second day; versus DMSO control
Procedure: (§2) Colonies of the ovarian tumor cell lines OVCAR-5, SK-OV-3 and IMR-90 cells were prepared using standard methods and materials. In one test, the colonies were prepared by seeding 15-centimeter dishes with about 10^6 cells in each dish. The dishes were incubated to allow the cell colonies to grow to about 80% confluence, at which time each of the colonies was divided into two groups. One group was exposed to a subacute dose of Compound V (5 μM) 4-8 hours after plating following the split; the other group was exposed to a DMSO control.
(§3) Each group was then allowed to continue to divide, and the groups were split evenly again (near confluence). The same number of cells were seeded for continued growth. The compound or control was added every second day to the samples at the same concentration delivered initially (5 μM). […] No effect was seen on SK-OV-3 cells.

[6] = system: OVCAR-5 cells; experiment: as above; format: cell-based; conditions: 5 μM, added every second day; versus DMSO control
Procedure: as §2, §3

[7] = system: IMR-90 cells; experiment: Long-term exposure of cell colonies, induction of senescence; format: cell-based; conditions: 5 μM, added every second day; versus DMSO control
Procedure: as §2, §3

[8] = system: OVCAR-5 tumor cells; experiment: Human tumor xenograft model in nude mice, tumor mass; format: in vivo
Procedure: In vivo testing was also performed using a mouse xenograft model in which OVCAR-5 tumor cells were grafted onto nude mice. […] In contrast, mice treated with a control (DMSO) are expected to have tumor masses that continue to increase.
A human tumor xenograft model in which OVCAR-5 tumor cells were grafted into nude mice was constructed using standard techniques and materials. The mice were divided into two groups. One group was treated intraperitoneally with Compound V. The other group was treated with a control comprising DMSO and phosphate buffer solution (PBS). The average tumor mass for mice in each group was determined periodically following the xenograft using standard methods and materials.

[9] = system: OVCAR-5; experiment: XTT assay for cytotoxicity; format: cell-based; conditions: Homo sapiens, 72 hours, 3 μM to 1,000 μM, read-out: LD50 (the source's name)
Procedure: (§4) The XTT assay for cytotoxicity was performed using the ovarian tumor cells lines IMR-90, OVCAR-5 and SK-OV-3. Cells from the normal human cell line BJ were used as a control. The cell lines used in the assay were exposed to Compound V of the invention for 72 hours at concentrations ranging from 3 μM to 1,000 μM. During this period, the optical density (OD) of the samples was determined for light at 540 nanometers (nm).

[10] = system: SK-OV-3; experiment: XTT assay for cytotoxicity; format: cell-based; conditions: Homo sapiens, 72 hours, 3 μM to 1,000 μM, read-out: LD50 (the source's name)
Procedure: as §4

[11] = system: IMR-90; experiment: XTT assay for cytotoxicity; format: cell-based; conditions: Homo sapiens, 72 hours, 3 μM to 1,000 μM, read-out: LD50 (the source's name)
Procedure: as §4

[12] = system: Topoisomerase II; experiment: Enzyme-mediated DNA cleavage assay (Topoisomerase II targeting / cleavable complex formation); format: biochemical
Procedure: Compound V was tested for its ability to target Topoisomerase II in a standard enzyme-mediated DNA cleavage assay. The well known anti-tumor agent VP-16 was used as a positive control. […] The amount of linear DNA was proportional to the concentration of Compound V used in the experiment.

[13] = target: T1, telomerase; experiment: specificity in IMR-90, OVCAR-5 and SK-OV-3 cell samples (Topoisomerase II, Single-Strand Binding Protein, Terminal Transferase); format: cell-based; conditions: cell samples dosed at one quarter of the IC50 for telomerase, versus Topoisomerase II
Procedure: In on experiment, Compound V was administered to IMR-90, OVCAR-5, and SK-OV-3 cell samples at a concentration one quarter that of its IC50 for telomerase. The effects of Compound V on the activity of Topoisomerase II, Single-Strand Binding Protein, and Terminal Transferase were then determined using standard methodologies.

T1 sequence (O14746 whole entry): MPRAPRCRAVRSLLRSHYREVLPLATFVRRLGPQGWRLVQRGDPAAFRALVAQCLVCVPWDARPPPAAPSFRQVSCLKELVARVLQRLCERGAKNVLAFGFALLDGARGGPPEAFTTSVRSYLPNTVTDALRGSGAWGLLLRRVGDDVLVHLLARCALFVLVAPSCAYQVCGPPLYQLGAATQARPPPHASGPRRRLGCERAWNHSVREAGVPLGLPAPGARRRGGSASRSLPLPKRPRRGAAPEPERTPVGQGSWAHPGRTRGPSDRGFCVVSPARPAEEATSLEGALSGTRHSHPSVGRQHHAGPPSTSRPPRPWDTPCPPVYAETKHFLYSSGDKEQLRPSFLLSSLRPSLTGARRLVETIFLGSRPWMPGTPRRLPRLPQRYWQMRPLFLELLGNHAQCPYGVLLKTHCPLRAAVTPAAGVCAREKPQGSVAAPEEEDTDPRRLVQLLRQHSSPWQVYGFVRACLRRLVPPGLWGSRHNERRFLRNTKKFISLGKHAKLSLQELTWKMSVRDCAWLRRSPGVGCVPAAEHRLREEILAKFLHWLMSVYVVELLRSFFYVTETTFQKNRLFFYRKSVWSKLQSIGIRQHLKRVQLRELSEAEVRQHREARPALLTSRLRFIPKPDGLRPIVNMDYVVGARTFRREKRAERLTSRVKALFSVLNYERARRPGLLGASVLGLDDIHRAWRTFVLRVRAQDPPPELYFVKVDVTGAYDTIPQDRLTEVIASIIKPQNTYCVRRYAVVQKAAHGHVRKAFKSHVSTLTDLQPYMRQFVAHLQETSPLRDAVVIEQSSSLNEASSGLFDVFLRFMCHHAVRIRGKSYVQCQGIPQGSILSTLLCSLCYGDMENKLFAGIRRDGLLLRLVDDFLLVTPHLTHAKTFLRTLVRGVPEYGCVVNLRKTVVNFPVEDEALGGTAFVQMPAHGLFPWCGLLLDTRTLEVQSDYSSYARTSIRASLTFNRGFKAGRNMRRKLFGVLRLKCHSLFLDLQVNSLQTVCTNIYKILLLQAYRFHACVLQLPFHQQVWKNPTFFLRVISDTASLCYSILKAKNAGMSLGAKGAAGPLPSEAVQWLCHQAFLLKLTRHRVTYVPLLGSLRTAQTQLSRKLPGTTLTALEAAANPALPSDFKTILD

IC50 [1] [µM]	Compound	other results
< 3.2	N#Cc1ccc(C=O)nc1SCc1ccccc1-c1ccccc1CSc1nc(C=O)ccc1C#N [Compound XXIV]	–
10.9	N#Cc1ccc(C=O)nc1SCC(=O)c1ccc(Cl)c(Cl)c1 [Compound X]	–
12.8	N#Cc1ccc(C=O)nc1OCc1ccc(Cl)c(Cl)c1 [Compound XIII]	–
< 3.2	N#Cc1ccc(C=O)nc1SCc1c(Cl)c(Cl)c(CSc2nc(C=O)ccc2C#N)c(Cl)c1Cl [Compound XXVIII]	–
< 3.2	Cc1c(C)c(C)c(CSc2nc(C=O)ccc2C#N)c(CSc2nc(C=O)ccc2C#N)c1C [Compound XX]	–
10	N#Cc1ccc(C=O)nc1SCC=CCSc1nc(C=O)ccc1C#N [Compound XXXV]	–
7	N#Cc1ccc(C=O)nc1SCc1c2ccccc2c(CSc2nc(C=O)ccc2C#N)c2ccccc12 [Compound XXIX]	–
< 3.2	Cc1c(CSc2nc(C=O)ccc2C#N)c(C)c(CSc2nc(C=O)ccc2C#N)c(C)c1CSc1nc(C=O)ccc1C#N [Compound XXXI]	–
21	CCc1c(CSc2nc(C=O)ccc2C#N)ccc2c1C(C)(C)CCC2(C)C [VIII]	–
5	N#Cc1ccc(C=O)nc1SCc1ccc(CSc2nc(C=O)ccc2C#N)cc1 [Compound XIX]	–

More lines, now with the values behind:

Compound	IC50 [1] [µM]	other results
N#Cc1ccc(C=O)nc1SCc1ccc(Cl)s1 [Compound IX]	5	–
N#Cc1ccc(C=O)nc1SCc1ccccc1CSc1nc(C=O)ccc1C#N [Compound XVIII]	6	–
N#Cc1ccc(C=O)nc1SCCCCSc1nc(C=O)ccc1C#N [Compound XXXIV]	7	–
N#Cc1ccc(C=O)nc1SCc1ccc(Cl)c(Cl)c1 [Compound V]	4.5	lower specificity for Topoisomerase II as compared to telomerase [2]: ≥ 5 fold; lower specificity for Terminal Transferase as compared to telomerase [3]: ≥ 5 fold; lower specificity for Single-Stranded DNA Binding Protein (SSB) as compared to telomerase [4]: ≥ 5 fold; effect on cells [5]: No effect; effect on cell growth [6]: small effect; induction of senescence earlier than DMSO control [7]: approximately 5 period doublings; tumor growth ([8]; 10 mg/(kg.day), intraperitoneal): not affected; increase in tumor weight ([8]; 25 mg/(kg.day), intraperitoneal): practically ceased after about 50 days; tumor mass over time ([8]; average, after increase for a period following initial dosing): began to level with continuing treatment; tumor growth as compared to vehicle ([8]; intraperitoneal, p<0.05, unpaired t-test): statistically significant slowing of tumor growth; IC50 [9]: 15 µM; IC50 [10]: 10 µM; IC50 [11]: 5 µM; Topoisomerase II-mediated DNA cleavage (linear DNA in agarose gel) ([12]; VP-16 as positive control): targeted Topoisomerase II; cleavable complex formation in Topoisomerase II, level of activity versus adriamycin and mitoxantrone ([12]; compared with adriamycin and mitoxantrone): greater than the well-known anti-tumor agents adriamycin and mitoxantrone; also recorded: stronger Topoisomerase II-targeting antitumor agent than the known Topoisomerase II-targeting agents adriamycin and mitoxantrone; inhibitory activity with respect to Topoisomerase II ([12]; qualitative statement): display inhibitory activity with respect to Topoisomerase II; also recorded: demonstrate inhibitory activity with respect to Topoisomerase II; Topoisomerase II activity relative to VP-16 ([12]; relative to VP-16): one fifth the activity of VP-16; specificity for telomerase (factor) [13]: about 5
Cc1c(C)c(CSc2nc(C=O)ccc2C#N)c(C)c(CSc2nc(C=O)ccc2C#N)c1C [Compound XXII]	4	–
N#Cc1ccc(C=O)nc1SCc1cc(Cl)c(CSc2nc(C=O)ccc2C#N)cc1Cl [Compound XXI]	< 3.2	–
N#Cc1ccc(C=O)nc1SCC#CCSc1nc(C=O)ccc1C#N [Compound XXXVI]	5	–
N#Cc1ccc(C=O)nc1SCc1cc2ccccc2cc1CSc1nc(C=O)ccc1C#N [Compound XXVI]	6	–
N#Cc1ccc(C=O)nc1SCc1ccc(C(F)(F)F)cc1 [IV]	18	–
N#Cc1ccc(C=O)nc1SCC(=O)c1ccc(Cl)cc1 [Compound XII]	15.1	–
N#Cc1ccc(C=O)nc1SCc1c(Cl)cccc1Cl [VI]	7	–
Cc1cc(C)c(CSc2nc(C=O)ccc2C#N)c(C)c1CSc1nc(C=O)ccc1C#N [Compound XVI]	< 3.2	–
N#Cc1ccc(C=O)nc1SCc1cccc(CSc2nc(C=O)ccc2C#N)c1 [Compound XVII]	< 3.2	–
CC1(C)CCC(C)(C)c2cc(CSc3nc(C=O)ccc3C#N)ccc21 [VII]	8	–
Cc1cc(C)c(CSc2nc(C=O)ccc2C#N)cc1CSc1nc(C=O)ccc1C#N [Compound XV]	< 3.2	–
N#Cc1ccc(C=O)nc1SCc1cccc2cccc(CSc3nc(C=O)ccc3C#N)c12 [Compound XXVII]	< 3.2	–
N#Cc1ccc(C=O)nc1SCc1cc(CSc2nc(C=O)ccc2C#N)c(CSc2nc(C=O)ccc2C#N)cc1CSc1nc(C=O)ccc1C#N [XXXIII]	< 3.2	–
N#Cc1ccc(C=O)nc1SCc1ccc2ccccc2c1CSc1nc(C=O)ccc1C#N [Compound XXX]	7	–
N#Cc1ccc(C=O)nc1SCC(=O)c1ccc(Cl)cc1Cl [Compound XI]	27	–
N#Cc1ccc(C=O)nc1SCc1cc(Br)ccc1-c1ccc(Br)cc1CSc1nc(C=O)ccc1C#N [Compound XXV]	< 3.2	–
Cc1cc(CSc2nc(C=O)ccc2C#N)c(C)cc1CSc1nc(C=O)ccc1C#N [Compound XXIII]	7	–
Cc1c(C)c(C)c(CSc2nc(C=O)ccc2C#N)c(C)c1C [III]	9	–
N#Cc1ccc(C=O)nc1SCc1ccc(CSc2nc(C=O)ccc2C#N)c(CSc2nc(C=O)ccc2C#N)c1CSc1nc(C=O)ccc1C#N [XXXII]	< 3.2	–
